Test results as given in ChEMBL document CHEMBL4725265, “Short chain α-pyrones capable of potentiating penicillin G against Pseudomonas aeruginosa” (Bioorg Med Chem Lett, 2020).
Values after ≈ are worked out from the molar mass of the structure shown. Active and inactive are the calls of the source. No cut-off for these calls is given here.

Experiments:
[1] = test system: Staphylococcus aureus; experiment: Antibacterial activity against Staphylococcus aureus; format: functional, organism-based
[2] = test system: Escherichia coli; experiment: Antibacterial activity against Escherichia coli; format: functional, organism-based
[3] = test system: Bacillus subtilis; experiment: Antibacterial activity against Bacillus subtilis; format: functional, organism-based
[4] = test system: Pseudomonas aeruginosa; experiment: Antibacterial activity against Pseudomonas aeruginosa; format: functional, organism-based
[5] = test system: Staphylococcus aureus; experiment: Potentiation of amoxicillin-induced antibacterial activity against Staphylococcus aureus assessed as amoxicillin MIC at 50 uM after 12 to 24 hrs (reference value: 128 microg/ml); format: functional; conditions: time hrs 12-24
[6] = test system: Staphylococcus aureus; experiment: Potentiation of erythromycin-induced antibacterial activity against Staphylococcus aureus assessed as erythromycin MIC at 50 uM after 12 to 24 hrs (reference value: 0.5 microg/ml); format: functional; conditions: time hrs 12-24
[7] = test system: Staphylococcus aureus; experiment: Potentiation of penicillin G-induced antibacterial activity against Staphylococcus aureus assessed as penicillin G MIC at 50 uM after 12 to 24 hrs (reference value: […] microg/ml); format: functional; conditions: time hrs 12-24
[8] = test system: Staphylococcus aureus; experiment: Potentiation of vancomycin-induced antibacterial activity against Staphylococcus aureus assessed as vancomycin MIC at 50 uM after 12 to 24 hrs (reference value: 0.5 microg/ml); format: functional; conditions: time hrs 12-24
[9] = test system: Staphylococcus aureus; experiment: Potentiation of amoxicillin-induced antibacterial activity against Staphylococcus aureus assessed as fold reduction in amoxicillin MIC at 50 uM after 12 to 24 hrs relative to amoxicillin MIC alone; format: functional; conditions: time hrs 12-24
[10] = test system: Staphylococcus aureus; experiment: Potentiation of erythromycin-induced antibacterial activity against Staphylococcus aureus assessed as fold reduction in erythromycin MIC at 50 uM after 12 to 24 hrs relative to erythromycin MIC alone; format: functional; conditions: time hrs 12-24
[11] = test system: Staphylococcus aureus; experiment: Potentiation of penicillin G-induced antibacterial activity against Staphylococcus aureus assessed as fold reduction in penicillin G MIC at 50 uM after 12 to 24 hrs relative to penicillin G MIC alone; format: functional; conditions: time hrs 12-24
[12] = test system: Staphylococcus aureus; experiment: Potentiation of vancomycin-induced antibacterial activity against Staphylococcus aureus assessed as fold reduction in vancomycin MIC at 50 uM after 12 to 24 hrs relative to vancomycin MIC alone; format: functional; conditions: time hrs 12-24
[13] = test system: Bacillus subtilis; experiment: Potentiation of amoxicillin-induced antibacterial activity against Bacillus subtilis assessed as amoxicillin MIC at 50 uM after 12 to 24 hrs (reference value: 64 microg/ml); format: functional; conditions: time hrs 12-24
[14] = test system: Bacillus subtilis; experiment: Potentiation of erythromycin-induced antibacterial activity against Bacillus subtilis assessed as erythromycin MIC at 50 uM after 12 to 24 hrs (reference value: 0.5 microg/ml); format: functional; conditions: time hrs 12-24
[15] = test system: Bacillus subtilis; experiment: Potentiation of penicillin G-induced antibacterial activity against Bacillus subtilis assessed as penicillin G MIC at 50 uM after 12 to 24 hrs (reference value: 64 microg/ml); format: functional; conditions: time hrs 12-24
[16] = test system: Bacillus subtilis; experiment: Potentiation of vancomycin-induced antibacterial activity against Bacillus subtilis assessed as vancomycin MIC at 50 uM after 12 to 24 hrs (reference value: 64 microg/ml); format: functional; conditions: time hrs 12-24
[17] = test system: Bacillus subtilis; experiment: Potentiation of amoxicillin-induced antibacterial activity against Bacillus subtilis assessed as fold reduction in amoxicillin MIC at 50 uM after 12 to 24 hrs relative to amoxicillin MIC alone; format: functional; conditions: time hrs 12-24
[18] = test system: Bacillus subtilis; experiment: Potentiation of erythromycin-induced antibacterial activity against Bacillus subtilis assessed as fold reduction in erythromycin MIC at 50 uM after 12 to 24 hrs relative to erythromycin MIC alone; format: functional; conditions: time hrs 12-24
[19] = test system: Bacillus subtilis; experiment: Potentiation of penicillin G-induced antibacterial activity against Bacillus subtilis assessed as fold reduction in penicillin G MIC at 50 uM after 12 to 24 hrs relative to penicillin G MIC alone; format: functional; conditions: time hrs 12-24
[20] = test system: Bacillus subtilis; experiment: Potentiation of vancomycin-induced antibacterial activity against Bacillus subtilis assessed as fold reduction in vancomycin MIC at 50 uM after 12 to 24 hrs relative to vancomycin MIC alone; format: functional; conditions: time hrs 12-24
[21] = test system: Escherichia coli; experiment: Potentiation of amoxicillin-induced antibacterial activity against Escherichia coli assessed as amoxicillin MIC at 50 uM after 12 to 24 hrs (reference value: 4 microg/ml); format: functional; conditions: time hrs 12-24
[22] = test system: Escherichia coli; experiment: Potentiation of erythromycin-induced antibacterial activity against Escherichia coli assessed as erythromycin MIC at 50 uM after 12 to 24 hrs (reference value: 1 microg/ml); format: functional; conditions: time hrs 12-24
[23] = test system: Escherichia coli; experiment: Potentiation of penicillin G-induced antibacterial activity against Escherichia coli assessed as penicillin G MIC at 50 uM after 12 to 24 hrs (reference value: 64 microg/ml); format: functional; conditions: time hrs 12-24
[24] = test system: Escherichia coli; experiment: Potentiation of vancomycin-induced antibacterial activity against Escherichia coli assessed as vancomycin MIC at 50 uM after 12 to 24 hrs (reference value: 64 microg/ml); format: functional; conditions: time hrs 12-24
[25] = test system: Escherichia coli; experiment: Potentiation of amoxicillin-induced antibacterial activity against Escherichia coli assessed as fold reduction in amoxicillin MIC at 50 uM after 12 to 24 hrs relative to amoxicillin MIC alone; format: functional; conditions: time hrs 12-24
[26] = test system: Escherichia coli; experiment: Potentiation of erythromycin-induced antibacterial activity against Escherichia coli assessed as fold reduction in erythromycin MIC at 50 uM after 12 to 24 hrs relative to erythromycin MIC alone; format: functional; conditions: time hrs 12-24
[27] = test system: Escherichia coli; experiment: Potentiation of penicillin G-induced antibacterial activity against Escherichia coli assessed as fold reduction in penicillin G MIC at 50 uM after 12 to 24 hrs relative to penicillin G MIC alone; format: functional; conditions: time hrs 12-24
[28] = test system: Escherichia coli; experiment: Potentiation of vancomycin-induced antibacterial activity against Escherichia coli assessed as fold reduction in vancomycin MIC at 50 uM after 12 to 24 hrs relative to vancomycin MIC alone; format: functional; conditions: time hrs 12-24
[29] = test system: Pseudomonas aeruginosa; experiment: Potentiation of amoxicillin-induced antibacterial activity against Pseudomonas aeruginosa assessed as amoxicillin MIC at 50 uM after 12 to 24 hrs (reference value: 2 microg/ml); format: functional; conditions: time hrs 12-24
[30] = test system: Pseudomonas aeruginosa; experiment: Potentiation of erythromycin-induced antibacterial activity against Pseudomonas aeruginosa assessed as erythromycin MIC at 50 uM after 12 to 24 hrs (reference value: 0.5 microg/ml); format: functional; conditions: time hrs 12-24
[31] = test system: Pseudomonas aeruginosa; experiment: Potentiation of penicillin G-induced antibacterial activity against Pseudomonas aeruginosa assessed as penicillin G MIC at 50 uM after 12 to 24 hrs (Rvb > 128 microg/ml); format: functional; conditions: time hrs 12-24
[32] = test system: Pseudomonas aeruginosa; experiment: Potentiation of vancomycin-induced antibacterial activity against Pseudomonas aeruginosa assessed as vancomycin MIC at 50 uM after 12 to 24 hrs (reference value: 1 microg/ml); format: functional; conditions: time hrs 12-24
[33] = test system: Pseudomonas aeruginosa; experiment: Potentiation of amoxicillin-induced antibacterial activity against Pseudomonas aeruginosa assessed as fold reduction in amoxicillin MIC at 50 uM after 12 to 24 hrs relative to amoxicillin MIC alone; format: functional; conditions: time hrs 12-24
[34] = test system: Pseudomonas aeruginosa; experiment: Potentiation of erythromycin-induced antibacterial activity against Pseudomonas aeruginosa assessed as fold reduction in erythromycin MIC at 50 uM after 12 to 24 hrs relative to erythromycin MIC alone; format: functional; conditions: time hrs 12-24
[35] = test system: Pseudomonas aeruginosa; experiment: Potentiation of penicillin G-induced antibacterial activity against Pseudomonas aeruginosa assessed as fold reduction in penicillin G MIC at 50 uM after 12 to 24 hrs relative to penicillin G MIC alone; format: functional; conditions: time hrs 12-24
[36] = test system: Pseudomonas aeruginosa; experiment: Potentiation of vancomycin-induced antibacterial activity against Pseudomonas aeruginosa assessed as fold reduction in vancomycin MIC at 50 uM after 12 to 24 hrs relative to vancomycin MIC alone; format: functional; conditions: time hrs 12-24
[37] = test system: Pseudomonas aeruginosa; experiment: Antibacterial activity against Pseudomonas aeruginosa assessed as cell wall perturbation by XTT assay; format: functional, organism-based
[38] = test system: Pseudomonas aeruginosa; experiment: Antibiofilm activity against Pseudomonas aeruginosa by crystal violet staining based assay; format: functional, organism-based
[39] = test system: Pseudomonas aeruginosa; experiment: Antibacterial activity against Pseudomonas aeruginosa PAO1 assessed as growth inhibition by micro dilution assay; format: functional
[40] = test system: Pseudomonas aeruginosa; experiment: Antibacterial activity against Pseudomonas aeruginosa GKCW120 harboring P6 deletion mutant assessed as growth inhibition incubated for 8 hrs by micro dilution assay; format: functional
[41] = test system: Pseudomonas aeruginosa; experiment: Antibacterial activity against Pseudomonas aeruginosa GKCW120 harboring P6 deletion mutant assessed as growth inhibition incubated for 24 hrs by micro dilution assay; format: functional

Work on CCCc1c(O)cc(CC)oc1=O yielded an IC50 [1] of over 100 µg/mL, an MIC [1] of over 500 µM and an IC50 [2] of over 100 µg/mL. The MIC [2] was over 500 µM, the IC50 [3] was over 100 µg/mL and the MIC [3] was over 500 µM. For the same molecule, the IC50 [4] was over 1000 µg/mL, the MIC [4] was over 5000 µM and the MIC [5] was 128 µg/mL. The MIC [6] was 0.5 µg/mL, the MIC [7] was 64 µg/mL and the MIC [8] was 0.5 µg/mL. It also gave a Ratio [9] of 1, a Ratio [10] of 1 and a Ratio [11] of 1. It also gave a Ratio [12] of 1, an MIC [13] of 64 µg/mL and an MIC [14] of 0.5 µg/mL. The MIC [15] was 64 µg/mL, the MIC [16] was 64 µg/mL and the Ratio [17] was 1. It also gave a Ratio [18] of 1, a Ratio [19] of 1 and a Ratio [20] of 1. It also gave an MIC [21] of 4 µg/mL, an MIC [22] of 1 µg/mL and an MIC [23] of 64 µg/mL. For the same molecule, the MIC [24] was 64 µg/mL, the Ratio [25] was 1 and the Ratio [26] was 1. The Ratio [27] was 1, the Ratio [28] was 1 and the MIC [29] was 2 µg/mL. The MIC [30] was 0.5 µg/mL, the MIC [31] was 128 µg/mL and the MIC [32] was 1 µg/mL. It also gave a Ratio [33] of 1, a Ratio [34] of 1 and a Ratio [35] of over 1. The Ratio [36] was 1, the Activity [37] was “inactive” and the Activity [38] was “inactive”.
Molecule CCC(=O)c1c(O)cc(CC)oc1=O has an IC50 [1] of over 100 µg/mL, an MIC [1] of over 500 µM and an IC50 [2] of over 100 µg/mL. For the same molecule, the MIC [2] was over 500 µM, the IC50 [3] was over 100 µg/mL and the MIC [3] was over 500 µM. It also gave an IC50 [4] of over 1000 µg/mL, an MIC [4] of over 5000 µM and an MIC [5] of 128 µg/mL. For the same molecule, the MIC [6] was 0.5 µg/mL, the MIC [7] was 64 µg/mL and the MIC [8] was 0.5 µg/mL. For the same molecule, the Ratio [9] was 1, the Ratio [10] was 1 and the Ratio [11] was 1. The Ratio [12] was 1, the MIC [13] was 64 µg/mL and the MIC [14] was 0.5 µg/mL. The MIC [15] was 64 µg/mL, the MIC [16] was 64 µg/mL and the Ratio [17] was 1. The Ratio [18] was 1, the Ratio [19] was 1 and the Ratio [20] was 1. The MIC [21] was 4 µg/mL, the MIC [22] was 1 µg/mL and the MIC [23] was 64 µg/mL. The MIC [24] was 64 µg/mL, the Ratio [25] was 1 and the Ratio [26] was 1. For the same molecule, the Ratio [27] was 1, the Ratio [28] was 1 and the MIC [29] was 2 µg/mL. It also gave an MIC [30] of 0.5 µg/mL, an MIC [31] of 0.5 µg/mL and an MIC [32] of 1 µg/mL. It also gave a Ratio [33] of 1, a Ratio [34] of 1 and a Ratio [35] of over 256. For the same molecule, the Ratio [36] was 1, the Activity [37] was “inactive” and the Activity [38] was “inactive”.
Work on CC1(C)S[C@@H]2[C@H](NC(=O)Cc3ccccc3)C(=O)N2[C@H]1C(=O)O [PENICILLIN G] yielded an MIC [39] of over 128 µg/mL, an MIC [40] of 0.5 µg/mL (≈ 1.5 µM) and an MIC [41] of over 128 µg/mL.
